From patent publication US20080149878A1, “Fluorosurfactants” (priority 2005, published 2008) come the findings set out here.

The data set can be described thus: Determination of the surface tension (Krüss tensiometer K12, ring). Particulars: 20° C. Format: physicochemical. From the text:
[table] Further details on the method can be obtained from the publication by the European Commission Classification, Packaging and Labelling of Dangerous Substances in the European Union, Part II—Test Methods, Annex V—Methods for the Determination of Physico-Chemical Properties, Toxicity and Ecotoxicity, Part A, Surface Tension (A.5), January 1997, pages 51-57, and from the OECD Guideline for the Testing of Chemicals, Section 1, Physical-Chemical Properties, Method 115, pages 1-7, adopted: 27, July 95, the contents of which in this respect expressly belong to the disclosure content of the present application.

On to `CCCCCCCCCCS(=O)(=O)[O-].[Na+]` [Decane-sulfonic acid Na salt, sodium decanesulfonate], for which the Surface tension reads like this: (1.0020 g/l (4.101E−03 mol/l) in deionised water) 66.13 mN/m; (2.0015 g/l (8.192E−03 mol/l) in deionised water) 57.70 mN/m; (3.0010 g/l (1.228E−02 mol/l) in deionised water) 52.61 mN/m.

Regarding `O=S(=O)(O)CCCCCCCCCCOC(F)(F)F` [Example 5, Sodium 10-trifluoromethoxydecane-1-sulfonate], the Surface tension is, setting by setting: (0.5015 g/l (1.527E−03 mol/l) in deionised water) 59.95 mN/m; (1.0000 g/l (3.046E−03 mol/l) in deionised water) 52.55 mN/m; (2.0005 g/l (6.093E−03 mol/l) in deionised water) 42.61 mN/m.
